# The supplement of paper PMC4862054
# Experiments:
# CAL-51 = conditions: 72 h
# Method: (§1)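 Drug sensitivity and resistance testing (DSRT) of breast cancer cell lines in 384-well plates, 5 concentrations in 10-fold dilutions over a compound-specific 10,000-fold range. After 72 h, cytotoxicity was read by CellTox Green fluorescence and viability by CellTiter-Glo luminescence (multiplexed), normalised to DMSO and benzethonium chloride controls. EC50 is the inflection point of the fitted dose-response curve (bottom asymptote free, so it can be relative for partial curves) and is censored at the highest tested concentration. Rows with DSS 0 (no meaningful response) were excluded.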
# MDA-MB-231 = conditions: 72 h
# Method: as §1
Compound,"EC50, CellTox Green (CAL-51)","EC50, CellTox Green (MDA-MB-231)"
CN(c1ccccc1CNc1nc(Nc2ccc3c(c2)CC(=O)N3)ncc1C(F)(F)F)S(C)(=O)=O,201 nM,1820 nM
COc1ncc(-c2ccc3nccc(-c4ccnnc4)c3c2)cc1NS(=O)(=O)c1ccc(F)cc1F,91.7 nM,157 nM
C[C@@]1(C(=O)Nc2ccc(F)nc2)CCCN1c1nc(Nc2cc(C3CC3)n[nH]2)c2cccn2n1,824 nM,1980 nM
COc1c(C)cnc(Cn2cnc3c(Cl)nc(N)nc32)c1C [BIIB021],758 nM,928 nM
CC(C)C[C@H](NC(=O)[C@H](Cc1ccccc1)NC(=O)c1cnccn1)B(O)O [Bortezomib],27.5 nM,13.9 nM
C#Cc1cccc(Nc2ncnc3cc(OC)c(OCCCCCCC(=O)NO)cc23)c1 [CUDC-101],2460 nM,403 nM
COC1=C2C[C@@H](C)C[C@H](OC)[C@H](O)[C@@H](C)/C=C(\C)[C@H](OC(N)=O)[C@@H](OC)/C=C\C=C(/C)C(=O)NC(=CC1=O)C2=O [Geldanamycin],8440 nM,4120 nM
COc1ccc(C2=N[C@@H](c3ccc(Cl)cc3)[C@@H](c3ccc(Cl)cc3)N2C(=O)N2CCNC(=O)C2)c(OC(C)C)c1 [Nutlin-3],252 nM,–
COC1=CC(c2cc3ccccc3[nH]2)=N/C1=C\c1[nH]c(C)cc1C [Obatoclax],2640 nM,760 nM
CC(=O)O[C@H]1C(=O)[C@@]2(C)[C@H]([C@H](OC(=O)c3ccccc3)[C@]3(O)C[C@H](OC(=O)[C@H](O)[C@@H](NC(=O)c4ccccc4)c4ccccc4)C(C)=C1C3(C)C)[C@]1(OC(C)=O)CO[C@@H]1C[C@@H]2O [Paclitaxel],2.93 nM,8.57 nM
